Literature values as cited in patent US20140234397A1 (priority 2013, published 2014).
Like-named read-outs stand apart in the source and are kept apart here.

What was measured:
[1] = rat; for removal of toxin: radio-tagged metal (CO60) removed from the liver
[2] = humans

Q: What does the source list for `N[C@@H](CCC(=O)N[C@@H](CS)C(=O)NCC(=O)O)C(=O)O` [Plain glutathione, glutathione]?
A: toxin remaining ([1]; radio-tagged metal (CO60) in the liver): 100%; removal of toxin [1]: 0%; removal of toxin ([1]; listed as Intravenous glutathione): 64%; absorption after oral ingestion [2]: not absorbed
